Experimental data published in US7115599B2, “Sulfonamide-substituted pyrazolopyridine compounds” (Bayer Aktiengesellschaft, priority 2000, dated 2006).
pIC50: −log10 of the molar value.

Test system: rabbit aorta rings
Assay: Vasorelaxant effect in vitro (phenylephrine-contracted rabbit aortic rings)
Conditions: Oryctolagus cuniculus; concentration reducing height of phenylephrine-induced contraction of rabbit aorta rings by 50%; 0.1% DMSO, 37° C.
Method: Rabbits are stunned by a blow to the back of the neck and are exsanguinated. The aorta is removed, freed of adherent tissue, divided into rings 1.5 mm wide and put singly under tension in 5 ml organ baths containing carbogen-gassed Krebs-Henseleit solution at 37° C. with the following composition (mM): NaCl: 119; KCl: 4.8; CaCl2×2H2O: 1; MgSO4×7H2O: 1.4; KH2PO4: 1.2; NaHCO3: 25; glucose: 10. The force of contraction is detected with Statham UC2 cells, amplified and digitized via A/D converters (DAS-1802 HC, Keithley Instruments Munich) and recorded in parallel on chart recorders. A contraction is generated by adding phenylephrine to the bath cumulatively in increasing concentration. After several control cycles, the substance to be investigated is investigated in each further run in increasing dosage in each case, and the height of the contraction is compared with the height of the contraction reached in the last preceding run. The concentration necessary to reduce the height of the control value by 50% (IC50) is calculated from this. The standard application volume is 5 μl, and the DMSO content in the bath solution corresponds to 0.1%.

Row | pIC50 | SMILES
1 | 6.54 | Nc1nc(-c2nn(Cc3ccccc3F)c3ncccc23)nc(Cl)c1N1CCCS1(=O)=O [Example 1, 6-Chloro-5-(1,1-dioxido-2-isothiazolidinyl)-2-[1-(2-fluorobenzyl)-1H-pyrazolo[3,4-b]pyridin-3-yl]-4-pyrimidinediamine]
2 | 6.46 | Nc1nc(-c2nn(Cc3ccccc3F)c3ncccc23)nc(N)c1N1CCCS1(=O)=O [Example 3, 5-(1,1-Dioxido-2-isothiazolidinyl)-2-[1-(2-fluorobenzyl)-1H-pyrazolo[3,4-b]pyridin-3-yl]-4,6-pyrimidineamine]
